# In US8273774B2, “Phenoxypyridinylamide compounds” (AstraZeneca AB, priority 2008, dated 2012):
# Structures can show the parent of a compound that is named as a salt.
# Biological target: recombinant Human Phosphodiesterase B2 (PDE4B2) (Homo sapiens, UniProt Q07343)
# Test: Human Phosphodiesterase B2 Radiometric Assay
# Assay type: biochemical
# Conditions: 0.1 μg/mL recombinant PDE4B2; preincubated at 30 C for 30 min; [3H]cyclic AMP 8 nM, stopped after 20 min; yttrium silicate SPA beads; read-out: PDE4B2 pIC50 (converted)
# Protocol: Human Phosphodiesterase B2 Radiometric Assay
# The assay uses recombinant Human Phosphodiesterase B2 (PDE4B2) produced in house (PrAZL0163), stored at −20° C. This assay is based on the observation that 5′AMP, the product of the reaction catalysed by PDE4, binds preferentially to yttrium silicate SPA beads (Amersham Biosciences, UK) compared to the substrate, cAMP. Compounds at the appropriate concentration were preincubated at 30 C for 30 min with an assay buffer containing 50 mM HEPES (pH 7.5), 8.3 mM MgCl2, 1.7 mM EGTA, 0.01% (w/v) Brij®35 and 0.1 μg/mL recombinant PDE4B2. The reaction was started by the addition of [3H]cyclic AMP to give a final concentration of 8 nM, and was stopped 20 min after the addition of the substrate by the addition of yttrium silicate SPA beads containing 18 mM Zn SO4. Bound […] was measured using a Topcount NXT (Packard Bioscience, UK). pIC50 values (presented in Table 2) were determined using Xlfit3 curve fitting, using model 205.
# Chain of recombinant Human Phosphodiesterase B2 (PDE4B2) (Q07343 1-564 isoform Q07343-2): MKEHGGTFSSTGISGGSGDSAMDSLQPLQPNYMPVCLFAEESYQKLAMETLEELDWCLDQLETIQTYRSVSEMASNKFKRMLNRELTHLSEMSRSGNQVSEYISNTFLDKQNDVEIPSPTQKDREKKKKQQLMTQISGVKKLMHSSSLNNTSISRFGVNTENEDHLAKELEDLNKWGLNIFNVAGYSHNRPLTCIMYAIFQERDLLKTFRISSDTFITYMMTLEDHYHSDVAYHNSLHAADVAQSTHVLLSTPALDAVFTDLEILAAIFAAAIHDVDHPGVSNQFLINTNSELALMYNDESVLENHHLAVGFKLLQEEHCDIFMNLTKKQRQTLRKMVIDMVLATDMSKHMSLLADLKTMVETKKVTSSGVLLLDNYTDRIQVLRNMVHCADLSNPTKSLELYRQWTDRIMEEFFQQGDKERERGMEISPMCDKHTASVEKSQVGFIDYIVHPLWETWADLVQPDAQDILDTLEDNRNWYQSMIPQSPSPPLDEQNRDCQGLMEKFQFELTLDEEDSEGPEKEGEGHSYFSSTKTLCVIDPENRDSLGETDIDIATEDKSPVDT
row,Structure (SMILES),IC50 [nM]
1,"O=C(N[C@H]1CC[C@@H](NC(=O)c2cc(F)cnc2Oc2cccc(-c3ccc(CN4CCNCC4)cc3)c2)CC1)c1cn2c(n1)CCCC2 [Example 1, N-((1s,4s)-4-(5-fluoro-2-(4′-(piperazin-1-ylmethyl)biphenyl-3-yloxy)nicotinamido)cyclohexyl)-5,6,7,8-tetrahydroimidazo[1,2-a]pyridine-2-carboxamide]",0.126
2,"Cc1cc(CN[C@H]2CC[C@@H](NC(=O)c3cc(F)cnc3Oc3cccc(-c4ccc(O)cc4CN4CCOCC4)c3)CC2)nn1C [Example 3, N-((1s,4s)-4-((1,5-dimethyl-1H-pyrazol-3-yl)methylamino)cyclohexyl)-5-fluoro-2-(4′-hydroxy-2′-(morpholinomethyl)biphenyl-3-yloxy)nicotinamide trifluoroacetate]",1.26
3,"Cc1cc(CN(Cc2cc(C)n(C)n2)[C@H]2CC[C@@H](NC(=O)c3cc(F)cnc3Oc3cccc(-c4ccc(O)cc4CN4CCOCC4)c3)CC2)nn1C [Example 4, N-((1s,4s)-4-(bis((1,5-dimethyl-1H-pyrazol-3-yl)methyl)amino)cyclohexyl)-5-fluoro-2-(4′-hydroxy-2′-(morpholinomethyl)biphenyl-3-yloxy)nicotinamide trifluoroacetate]",63.1
4,"Cc1nc(CN[C@H]2CC[C@@H](NC(=O)c3cc(F)cnc3Oc3cccc(-c4ccc(O)cc4CN4CCOCC4)c3)CC2)cs1 [Example 5, 5-fluoro-2-(4′-hydroxy-2′-(morpholinomethyl)biphenyl-3-yloxy)-N-((1s,4s)-4-((2-methylthiazol-4-yl)methylamino)cyclohexyl)nicotinamide]",5.01
5,"Cc1cccc(CN[C@H]2CC[C@@H](NC(=O)c3cc(F)cnc3Oc3cccc(-c4ccc(O)cc4CN4CCOCC4)c3)CC2)n1 [Example 6, 5-fluoro-2-(4′-hydroxy-2′-(morpholinomethyl)biphenyl-3-yloxy)-N-((1s,4s)-4-((6-methylpyridin-2-yl)methylamino)cyclohexyl)nicotinamide]",3.16
6,"Cc1ccc(O)c(CN[C@H]2CC[C@@H](NC(=O)c3cc(F)cnc3Oc3cccc(-c4ccc(O)cc4CN4CCOCC4)c3)CC2)c1 [Example 7, 5-fluoro-2-(4′-hydroxy-2′-(morpholinomethyl)biphenyl-3-yloxy)-N-((1s,4s)-4-(2-hydroxy-5-methylbenzylamino)cyclohexyl)nicotinamide]",6.31
7,"Cc1cccc2nc(CN[C@H]3CC[C@@H](NC(=O)c4cc(F)cnc4Oc4cccc(-c5ccc(O)cc5CN5CCOCC5)c4)CC3)cn12 [Example 8, 5-fluoro-2-(4′-hydroxy-2′-(morpholinomethyl)biphenyl-3-yloxy)-N-((1s,4s)-4-((5-methylimidazo[1,2-a]pyridin-2-yl)methylamino)cyclohexyl)nicotinamide]",0.631
8,"Cc1nc(C(=O)N[C@H]2CC[C@@H](NC(=O)c3cc(F)cnc3Oc3cccc(-c4ccc(O)cc4CN(C)C)c3)CC2)cs1 [Example 9, N-((1s,4s)-4-(2-(2′-((dimethylamino)methyl)-4′-hydroxybiphenyl-3-yloxy)-5-fluoronicotinamido)cyclohexyl)-2-methylthiazole-4-carboxamide]",0.0316
9,"Cc1cccc(C(=O)N[C@H]2CC[C@@H](NC(=O)c3cc(F)cnc3Oc3cccc(-c4ccc(O)cc4CN(C)C)c3)CC2)n1 [Example 10, N-((1s,4s)-4-(2-(2′-((dimethylamino)methyl)-4′-hydroxybiphenyl-3-yloxy)-5-fluoronicotinamido)cyclohexyl)-6-methylpicolinamide]",0.0316
10,"Cc1cccc2nc(C(=O)N[C@H]3CC[C@@H](NC(=O)c4cc(F)cnc4Oc4cccc(-c5ccc(O)cc5CN(C)C)c4)CC3)cn12 [Example 11, N-((1s,4s)-4-(2-(2′-((dimethylamino)methyl)-4′-hydroxybiphenyl-3-yloxy)-5-fluoronicotinamido)cyclohexyl)-5-methylimidazo[1,2-a]pyridine-2-carboxamide]",0.0501
11,"CN(C)Cc1cc(O)ccc1-c1cccc(Oc2ncc(F)cc2C(=O)N[C@H]2CC[C@@H](NC(=O)c3cn4cc(F)ccc4n3)CC2)c1 [Example 12, N-((1s,4s)-4-(2-(2′-((dimethylamino)methyl)-4′-hydroxybiphenyl-3-yloxy)-5-fluoronicotinamido)cyclohexyl)-6-fluoroimidazo[1,2-a]pyridine-2-carboxamide]",0.0501
12,"O=C(N[C@H]1CC[C@@H](NC(=O)c2cc(F)cnc2Oc2cccc(-c3ccc(O)cc3CN3CCCOCC3)c2)CC1)c1cn2cc(F)ccc2n1 [Example 13, N-((1s,4s)-4-(2-(2′-((1,4-oxazepan-4-yl)methyl)-4′-hydroxybiphenyl-3-yloxy)-5-fluoronicotinamido)cyclohexyl)-6-fluoroimidazo[1,2-a]pyridine-2-carboxamide]",0.02
13,"Cc1cccc(C(=O)N[C@H]2CC[C@@H](NC(=O)c3cc(F)cnc3Oc3cccc(-c4ccc(O)cc4CN4CCCOCC4)c3)CC2)n1 [Example 14, N-((1s,4s)-4-(2-(2′-((1,4-oxazepan-4-yl)methyl)-4′-hydroxybiphenyl-3-yloxy)-5-fluoronicotinamido)cyclohexyl)-6-methylpicolinamide]",0.02
14,"Cc1nc(C(=O)N[C@H]2CC[C@@H](NC(=O)c3cc(F)cnc3Oc3cccc(-c4ccc(O)cc4CN4CCCOCC4)c3)CC2)cs1 [Example 15, N-((1s,4s)-4-(2-(2′-((1,4-oxazepan-4-yl)methyl)-4′-hydroxybiphenyl-3-yloxy)-5-fluoronicotinamido)cyclohexyl)-2-methylthiazole-4-carboxamide]",0.02
15,"Cc1ccc(O)c(C(=O)N[C@H]2CC[C@@H](NC(=O)c3cc(F)cnc3Oc3cccc(-c4ccc(O)cc4CN4CCCOCC4)c3)CC2)c1 [Example 16, 2-(2′-((1,4-oxazepan-4-yl)methyl)-4′-hydroxybiphenyl-3-yloxy)-5-fluoro-N-((1s,4s)-4-(2-hydroxy-5-methylbenzamido)cyclohexyl)nicotinamide]",0.0316
16,"CN(C)C1(C(=O)NC2CCC(NC(=O)c3cc(F)cnc3Oc3cccc(-c4ccc(O)cc4CN4CCOCC4)c3)CC2)CC1 (stereo not shown) [Example 17, N-((1s,4s)-4-(1-(dimethylamino)cyclopropanecarboxamido)cyclohexyl)-5-fluoro-2-(4′-hydroxy-2′-(morpholinomethyl)biphenyl-3-yloxy)nicotinamide]",1.58
17,"Cc1cccc2nc(C(=O)N[C@H]3CC[C@@H](NC(=O)c4cc(F)cnc4Oc4cccc(-c5ccc(O)cc5CN5CCOCC5)c4)CC3)cn12 [Example 18, N-((1s,4s)-4-(5-fluoro-2-(4′-hydroxy-2′-(morpholinomethyl)biphenyl-3-yloxy)nicotinamido)cyclohexyl)-5-methylimidazo[1,2-a]pyridine-2-carboxamide]",0.0158
18,"Cc1cc(C(=O)N[C@H]2CC[C@@H](NC(=O)c3cc(F)cnc3Oc3cccc(-c4ccc(O)cc4CN4CCCOCC4)c3)CC2)nn1C [Example 19, 2-(2′-((1,4-oxazepan-4-yl)methyl)-4′-hydroxybiphenyl-3-yloxy)-N-((1s,4s)-4-(1,5-dimethyl-1H-pyrazole-3-carboxamido)cyclohexyl)-5-fluoronicotinamide]",0.01
19,"Cc1cccc2nc(C(=O)N[C@H]3CC[C@@H](NC(=O)c4cc(F)cnc4Oc4cccc(-c5ccc(O)cc5CN5CCCOCC5)c4)CC3)cn12 [Example 20, N-((1s,4s)-4-(2-(2′-((1,4-oxazepan-4-yl)methyl)-4′-hydroxybiphenyl-3-yloxy)-5-fluoronicotinamido)cyclohexyl)-5-methylimidazo[1,2-a]pyridine-2-carboxamide]",0.0316
